Experimental data taken from the supplement of paper PMC11061612.

Columns and labels:
[1] = test system: MFE-296 (Endometrial Carcinoma); assay: combination Emax (second highest fraction inhibited in the dose matrix, 72 h); higher = more inhibition; extreme values may be limits of the assay
In short: (§1)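 After 24 hours at 37°C and 5% CO2 in 1536-well plates, cells in DMEM/F12 or RPMI plus 10% FBS received two-drug dose matrices for 72 hours. Viability came from CellTiter-Glo 2.0 luminescence and was scaled as inhibition, anchored at 0 by vehicle wells and at 1 by blank wells. Combination Emax is taken as the second-highest inhibition in the matrix, and Bliss excess as the observed combination effect less EA + EB − EA·EB, with EA and EB the single-agent effects.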

[2] = test system: KP-1N (Pancreatic Carcinoma); assay: as above
In short: as §1

[3] = test system: LU-135 (Small Cell Lung Carcinoma); assay: as above
In short: as §1

[4] = test system: Calu-3 (Lung Adenocarcinoma); assay: as above
In short: as §1

[5] = test system: B-CPAP (Thyroid Gland Carcinoma); assay: as above
In short: as §1

[6] = test system: COLO-205 (Colorectal Carcinoma); assay: as above
In short: as §1

[7] = test system: EC-GI-10 (Esophageal Squamous Cell Carcinoma); assay: as above
In short: as §1

[8] = test system: HuP-T4 (Pancreatic Carcinoma); assay: as above
In short: as §1

[9] = test system: AGS (Gastric Carcinoma); assay: as above
In short: as §1

[10] = test system: LS-180 (Colorectal Carcinoma); assay: as above
In short: as §1

[11] = test system: TE-15 (Esophageal Squamous Cell Carcinoma); assay: as above
In short: as §1

[12] = test system: SNU-5 (Gastric Carcinoma); assay: as above
In short: as §1

[13] = test system: MDA-MB-361 (Breast Carcinoma); assay: as above
In short: as §1

[14] = test system: NOS-1 (Osteosarcoma); assay: as above
In short: as §1

[15] = test system: MFE-296 (Endometrial Carcinoma); assay: Bliss excess, mean over the matrix (fraction); higher = more synergy
In short: as §1

[16] = test system: TE-9 (Esophageal Squamous Cell Carcinoma); assay: as above
In short: as §1

[17] = test system: KELLY (Neuroblastoma); assay: as above
In short: as §1

[18] = test system: SK-ES-1 (Ewing's Sarcoma); assay: as above
In short: as §1

[19] = test system: AGS (Gastric Carcinoma); assay: as above
In short: as §1

[20] = test system: MDA-MB-361 (Breast Carcinoma); assay: as above
In short: as §1
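For Bliss excess, mean over the matrix in this document: after 72 h of two-drug dosing.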

NC1(C(=O)N[C@@H](CCO)c2ccc(Cl)cc2)CCN(c2ncnc3[nH]ccc23)CC1 [Capivasertib] + COc1nnc2ccc(N3CCC(c4ccc(OCCN5CCN(C)C(=O)[C@H]5C)cc4)CC3)nn12 [AZD5153] (first compound max 10 µM, 7x7, partner max 1 µM)
combination Emax [1]: 0.694 | combination Emax [2]: 0.621 | combination Emax [3]: 0.969 | combination Emax [4]: 0.749 | combination Emax [5]: 0.723 | combination Emax [6]: 0.808 | combination Emax [7]: 0.543 | combination Emax [8]: 0.442 | combination Emax [9]: 0.944 | combination Emax [10]: 0.694 | combination Emax [11]: 0.693 | combination Emax [12]: 0.564 | combination Emax [13]: 0.718 | combination Emax [14]: 0.806 | Bliss excess [15]: 0.0901 | Bliss excess [16]: 0.0567 | Bliss excess [17]: 0.0184 | Bliss excess [18]: 0.0815 | Bliss excess [19]: 0.0228 | Bliss excess [20]: 0.0588

NC1(C(=O)N[C@@H](CCO)c2ccc(Cl)cc2)CCN(c2ncnc3[nH]ccc23)CC1 [Capivasertib] + C[C@@H]1COCCN1C2=NC(=NC(=C2)C3(CC3)[S@](=N)(=O)C)C4=C5C=CNC5=NC=C4 [AZD6738] (first compound max 10 µM, 7x7, partner max 10 µM)
combination Emax [1]: 0.641 | combination Emax [2]: 0.323 | combination Emax [3]: 0.793 | combination Emax [4]: 0.512 | combination Emax [5]: 0.719 | combination Emax [6]: 0.637 | combination Emax [7]: 0.7 | combination Emax [8]: 0.446 | combination Emax [9]: 0.837 | combination Emax [10]: 0.825 | combination Emax [11]: 0.879 | combination Emax [12]: 0.919 | combination Emax [13]: 0.78 | combination Emax [14]: 0.68 | Bliss excess [15]: -0.0508 | Bliss excess [16]: -0.0415 | Bliss excess [17]: 0.0028 | Bliss excess [18]: -0.0831 | Bliss excess [19]: -0.0449 | Bliss excess [20]: -0.11

NC1(C(=O)N[C@@H](CCO)c2ccc(Cl)cc2)CCN(c2ncnc3[nH]ccc23)CC1 [Capivasertib] + Cn1cnc2c(F)c(Nc3ccc(Br)cc3Cl)c(C(=O)NOCCO)cc21 [Selumetinib] (first compound max 10 µM, 7x7, partner max 10 µM)
combination Emax [1]: 0.618 | combination Emax [2]: 0.393 | combination Emax [3]: 0.352 | combination Emax [4]: 0.461 | combination Emax [5]: 0.499 | combination Emax [6]: 0.778 | combination Emax [7]: 0.927 | combination Emax [8]: 0.396 | combination Emax [9]: 0.953 | combination Emax [10]: 0.771 | combination Emax [11]: 0.633 | combination Emax [12]: 0.756 | combination Emax [13]: 0.493 | combination Emax [14]: 0.388 | Bliss excess [15]: -0.0133 | Bliss excess [16]: -0.0011 | Bliss excess [17]: 0.0266 | Bliss excess [18]: 0.0507 | Bliss excess [19]: 0.0697 | Bliss excess [20]: 0.0297

Cc1nc(Nc2ncc(C(=O)Nc3c(C)cccc3Cl)s2)cc(N2CCN(CCO)CC2)n1 [Dasatinib] + CC(=O)Nc1cccc(-n2c(=O)n(C3CC3)c(=O)c3c(Nc4ccc(I)cc4F)n(C)c(=O)c(C)c32)c1 [Trametinib] (first compound max 2 µM, 7x7, partner max 1 µM)
combination Emax [1]: 0.224 | combination Emax [2]: 0.478 | combination Emax [3]: 0.0891 | combination Emax [4]: 0.619 | combination Emax [5]: 0.79 | combination Emax [6]: 0.728 | combination Emax [7]: 0.503 | combination Emax [8]: 0.486 | combination Emax [9]: 1 | combination Emax [10]: 0.747 | combination Emax [11]: 0.782 | combination Emax [12]: 0.654 | combination Emax [13]: 0.229 | combination Emax [14]: 0.921 | Bliss excess [15]: -0.0328 | Bliss excess [16]: -0.0104 | Bliss excess [17]: 0.0824 | Bliss excess [18]: -0.0256 | Bliss excess [19]: 0.0433 | Bliss excess [20]: -0.0072

COc1cccc2c1C(=O)c1c(O)c3c(c(O)c1C2=O)C[C@@](O)(C(=O)CO)C[C@@H]3O[C@H]1C[C@H](N)[C@H](O)[C@H](C)O1 [Doxorubicin] + Cc1cc2ncnn2cc1Nc1ncc2c(n1)n(C1CCOCC1)c(=O)n2C [AZD7648] (first compound max 1 µM, 7x7, partner max 10 µM)
combination Emax [1]: 0.295 | combination Emax [2]: 0.675 | combination Emax [3]: 0.817 | combination Emax [4]: 0.301 | combination Emax [5]: 0.941 | combination Emax [6]: 0.727 | combination Emax [7]: 0.693 | combination Emax [8]: 0.657 | combination Emax [9]: 0.986 | combination Emax [10]: 0.736 | combination Emax [11]: 0.721 | combination Emax [12]: 0.823 | combination Emax [13]: 0.537 | combination Emax [14]: 0.369 | Bliss excess [15]: -0.0119 | Bliss excess [16]: -0.0393 | Bliss excess [17]: 0.0411 | Bliss excess [18]: 0.143 | Bliss excess [19]: 0.109 | Bliss excess [20]: 0.0255

COc1cc2ncnc(Nc3ccc(F)c(Cl)c3)c2cc1OCCCN1CCOCC1 [Gefitinib] + CC(C)n1c(=O)n(C)c2cnc3cc(F)c(-c4ccc(OCCCN5CCCCC5)nc4)cc3c21 [AZD1390] (first compound max 10 µM, 7x7, partner max 0.3 µM)
combination Emax [1]: 0.0821 | combination Emax [2]: 0.004 | combination Emax [3]: 0.129 | combination Emax [4]: 0.738 | combination Emax [5]: 0.108 | combination Emax [6]: 0.135 | combination Emax [7]: 0.642 | combination Emax [8]: 0.178 | combination Emax [9]: 0.133 | combination Emax [10]: 0.292 | combination Emax [11]: 0.762 | combination Emax [12]: 0.178 | combination Emax [13]: 0.207 | combination Emax [14]: 0.714 | Bliss excess [15]: -0.0483 | Bliss excess [16]: -0.0522 | Bliss excess [17]: -0.0388 | Bliss excess [18]: -0.0733 | Bliss excess [19]: -0.0871 | Bliss excess [20]: -0.0535

CS(=O)(=O)CCNCc1ccc(-c2ccc3ncnc(Nc4ccc(OCc5cccc(F)c5)c(Cl)c4)c3c2)o1 [Lapatinib] + C[C@@H](Oc1cc(-c2cnn(C3CCNCC3)c2)cnc1N)c1c(Cl)ccc(F)c1Cl [Crizotinib] (first compound max 10 µM, 7x7, partner max 10 µM)
combination Emax [1]: 0.224 | combination Emax [2]: 0.809 | combination Emax [3]: 0.94 | combination Emax [4]: 0.931 | combination Emax [5]: 0.984 | combination Emax [6]: 0.939 | combination Emax [7]: 0.986 | combination Emax [8]: 0.915 | combination Emax [9]: 0.976 | combination Emax [10]: 0.908 | combination Emax [11]: 0.906 | combination Emax [12]: 0.927 | combination Emax [13]: 0.859 | combination Emax [14]: 0.985 | Bliss excess [15]: -0.0288 | Bliss excess [16]: -0.0194 | Bliss excess [17]: -0.03 | Bliss excess [18]: -0.0015 | Bliss excess [19]: 0.0118 | Bliss excess [20]: 0.0278
